Source: patent US20260335320A1, “ANTI-VIRULENCE AGENTS AND METHODS FOR THE TREATMENT OF PATHOGENIC BACTERIUM” (priority 2023, published 2026)
Read-outs that look alike come from different tables or passages of the source.

How the values were obtained:
B. cenocepacia = test: Invasion/intracellular survival in THP-1-derived macrophages; format: cell-based; conditions: 4 h
B. dolosa strain AU0158 = test: Invasion of and/or intracellular survival in THP-1-derived macrophages, antibiotic exclusion assay; format: cell-based, B. dolosa strain AU0158 (in human THP-1-derived macrophages)
B. thailandensis = test: microbe, parasite or virus in culture; format: cell-based
Mycobacterium abscessus = test: Intracellular invasion/survival in THP-1-derived macrophages; format: cell-based; conditions: 25 μM, 2 h plus 2 h with amikacin
Method: FIG. 9. BFA compounds reduce the virulence of M. abscessus. FIG. 9 provides a graph showing the results after THP-1-derived macrophages were infected with ~5×10^5 CFU/M. abscessus strain ATCC19977 and 25 μM of the indicated BFA or DMSO vehicle control for 2 hours. Cells were washed and treated with the same BFA and 500 μg/mL amikacin (to kill extracellular bacteria) for 2 hours.
To determine whether BFA compounds could inhibit the virulence of Mycobacterium abscessus THP-1-derived macrophages were used.

B. multivorans = test: Invasion/intracellular survival in THP-1-derived macrophages; format: cell-based; conditions: 4 h
[1] = system: P. aeruginosa strain PA14; test: P. aeruginosa-induced cytotoxicity of A549 cells (LDH release); conditions: 25 μM, 5.5 hours
[2] = system: Burkholderia FixLJ pathway (Fix-GFP reporter in B. multivorans strain VC7102); test: Fix-GFP reporter activation screen (GFP fluorescence)

In the case of CCCCCCc1cc2cc(-c3nnc(-c4ccc(C)cc4)o3)c(=O)oc2cc1O [BFA1, 6-HEXYL-7-HYDROXY-3-[5-(4-METHYLPHENYL)-1,3,4-OXADIAZOL-2-YL]-2H-CHROMEN-2-ONE], the “inhibition of invasion/survival of B. cenocepacia” value (B. cenocepacia; 25 μM) is reported as “able to inhibit the invasion/survival of B. cenocepacia”, the “dose needed to inhibit B. cenocepacia” value (B. cenocepacia; dose range, compared with 6.25 μM) is reported as “higher doses were needed to inhibit B. cenocepacia” and the “inhibition of invasion/survival of B. dolosa in macrophages” value (B. dolosa strain AU0158) is reported as “inhibited virulence at a lower concentration and at a greater magnitude than the other BFA compounds”. For the same compound, the “inhibition of invasion/survival of B. dolosa in macrophages” value (B. dolosa strain AU0158; for BFA 2-8 at highest dose tested) was ~ 75%, the “inhibition of invasion/survival of B. thailandensis” value (B. thailandensis; 25 μM, 4 h) was “able to inhibit the invasion/survival of B. cenocepacia (FIG. 3B) and B. thailandensis” and the minimal effective concentration (B. thailandensis; Burkholderia thailandensis, Macrophage, 2 h, read-out: dose inhibiting invasion/survival of B. thailandensis) was 6.25 µM. For the same compound, the “inhibition of intracellular invasion/survival of M. abscessus” value (Mycobacterium abscessus) was “able to inhibit the intracellular invasion/survival within the macrophages”, the “inhibition of invasion/survival of B. multivorans” value (B. multivorans; 25 μM, THP-1-derived macrophages) was “inhibited the invasion/survival of all three additional Burkholderia species” and the minimal effective concentration (B. multivorans; Burkholderia multivorans, Macrophage, read-out: dose inhibiting invasion/survival of B. multivorans) was 6.25 µM.
In the case of COCCNC(=O)CCn1c(=O)c2cc(OC)c(OC)cc2n(CC(=O)Nc2ccccc2OC)c1=O [BFA2, 3-(6,7-Dimethoxy-1-{[(2-Methoxyphenyl)Carbamoyl]Methyl}-2,4-Dioxo-1,2,3,4-Tetrahydroquinazolin-3-Yl)-N-(2-Methoxyethyl)Propanamide], the “inhibition of intracellular invasion/survival of M. abscessus” value (Mycobacterium abscessus) is reported as “able to inhibit the intracellular invasion/survival within the macrophages”.
With CCc1ccccc1N1CC(c2nc3ccccc3n2CCCCOc2ccccc2)CC1=O (centres unmarked) [BFA3, 1-(2-ETHYLPHENYL)-4-[1-(4-PHENOXYBUTYL)-1H-1,3-BENZODIAZOL-2-YL]PYRROLIDIN-2-ONE] the “inhibition of intracellular invasion/survival of M. abscessus” value (Mycobacterium abscessus) was “able to inhibit the intracellular invasion/survival within the macrophages” and the “inhibition of PA14-induced cytotoxicity” value [1] was “able to significantly reduce cytotoxicity”.
Cc1ccccc1-n1c(/C=C/c2ccc(N(C)C)cc2)nc2ccccc2c1=O [BFA6, 2-[(1E)-2-[4-(DIMETHYLAMINO)PHENYL]ETHENYL]-3-(2-METHYLPHENYL)-3,4-DIHYDROQUINAZOLIN-4-ONE] was tested, and the “inhibition of invasion/survival of B. thailandensis” value (B. thailandensis) was “able to inhibit the invasion/survival of B. thailandensis” and the “inhibition of PA14-induced cytotoxicity” value [1] was “able to significantly reduce cytotoxicity”.
With CCCCN(C)CCCNC(=O)Cn1ncc2c3ccccc3n(Cc3cccc(Cl)c3)c2c1=O [BFA7, N-{3-[Butyl(Methyl)Amino]Propyl}-2-{5-[(3-Chlorophenyl)Methyl]-4-Oxo-3h,4h,5h-Pyridazino[4,5-B]Indol-3-Yl}Acetamide] the “inhibition of intracellular invasion/survival of M. abscessus” value (Mycobacterium abscessus) was “able to inhibit the intracellular invasion/survival within the macrophages” and the “inhibition of PA14-induced cytotoxicity” value [1] was “able to significantly reduce cytotoxicity”.
In the case of NC(CO)C(=O)NNCc1ccc(O)c(O)c1O (centres unmarked) [Benserazide, benserazide], the “GFP activity above the mean of the negative control (DMSO)” value [2] is reported as “more than 3 standard deviations”.
